Experimental data taken from publication PMC11653257, “Organometallic Half-Sandwich Complexes of 8-Hydroxyquinoline-Derived Mannich Bases with Enhanced Solubility: Targeting Multidrug Resistant Cancer” (Inorganic Chemistry, 2024).
Values after ≈ are worked out from the molar mass of the structure shown.

Tests used:
MES-SA = assay: Cytotoxicity in triple coculture, MES-SA mCherry; format: cell-based, human; conditions: MES-SA/B1, MES-SA/Dx5, 144 h
Experimental: (§1) Cell lines were purchased from the American Type Culture Collection (ATCC). MES-SA/B1 is a human MDR1-transfected derivative of MES-SA, and MES-SA mCherry, MES-SA/B1 mOrange, and MES-SA/Dx5 eGFP were engineered to stably express the respective fluorescent proteins previously.[62] Cells were kept in culture medium (DMEM) supplemented with 10% fetal bovine serum, 2 mM L-glutamine, 100 units/mL penicillin, and 100 μg/mL streptomycin (Thermo Fisher). One week before use, MES-SA/Dx5 eGFP cells were treated with 0.5 μM doxorubicin to ensure ABCB1/P-gp expression.
(§2) The tested compounds were dissolved in 50% (v/v) DMSO/PBS’ buffer to prepare 5–10 mM stock solutions, which were diluted in complete culture medium. Constitutive expression of the fluorescent proteins allowed multiplexing in cytotoxicity experiments.[62] Cells were mixed before seeding in 384-well plates: in double cocultures, MES-SA mCherry and MES-SA/Dx5 eGFP cells were seeded at 1250–1250 cells/well (in total 2500 cells/well); while in triple cocultures, MES-SA mCherry, MES-SA/Dx5 eGFP and MES-SA/B1 mOrange cells were seeded at 800–800–800 cells/well (in total 2400 cells/well). Serial dilutions of the compounds were added 24 h after seeding. To address the effect of P-gp function, TQ was added at a nontoxic concentration (0.4 μM) 15 min before the test compounds. The intensity of the fluorescent proteins, which is proportional to cell mass, was measured after 144 h of incubation at the respective fluorescent channels (excitation/emission: eGFP: 485 nm/510 nm; mOrange: 545 nm/567 nm; mCherry: 585 nm/610 nm). pIC50 values were calculated by a custom program written by Judit Sessler in C#.[62] IC50 values and standard deviation were calculated from average pIC50 values from at least 3 independent measurements.

[1] = H2O/Cl– coligand exchange by UV–vis titration with chloride ions; format: physicochemical; conditions: RhCp* complexes titrated at pH 7.4
Experimental: When the isolated complexes (1–4) are dissolved in water, their chlorido coligand can be replaced by water, or vice versa in the aqua complexes [M(arene)(HL)(H2O)]^2+, the H2O → Cl^– exchange process can take place in the presence of chloride ions. The chloride ion affinity of the complexes was also investigated by UV–vis spectrophotometry. RhCp* and RuCym complexes were titrated with chloride ions at pH 7.4 and 6.0, respectively. For this experiment, pH values were chosen at which the formation of the mixed hydroxido species is negligible. A representative spectrum series for complex (4) is shown in Figure S27, and the calculated conditional exchange constants (logK’ (H2O/Cl^–)) are given in Table 2 and in Figure S23. […] The complexes of the amino acid hybrids HQCl-D-Pro and HQCl-D-hPro have lower logK’ (H2O/Cl^–) constants most likely due to the repulsive effect of the nearby COO^– group.[26]

[2] = Ligand displacement with 2,2′-bipyridine, conditional formation constant; format: physicochemical; conditions: pH 7.4; bpy competitor; UV–vis
Excerpt: These pKa (H2O) values are lower than those of the complexes formed with the corresponding amino acid hybrids (HQCl-D-Pro, HQCl-D-hPro, Figure S23). Thus, the predominant complex at pH 7.4 is [M(arene)(HL)(H2O)]^2+ in all cases, in which the bidentate ligand coordinates via the (N,O^–) donor set and the pyridinium or pyrrolidinium nitrogens are protonated just like in the isolated complexes (Chart 3). Based on the unchanged spectra (vide supra), these types of complexes show no dissociation at pH = 2, indicating their high stability and hindering the direct determination of the formation constants. Therefore, a ligand displacement experiment was performed using UV–vis spectrophotometry with 2,2′-bipyridine (bpy) as a competitor to determine conditional formation constants at pH = 7.4 (Figure S25). […] Nevertheless, these values indicate a high stability of the complexes in solution, and <1% of dissociation is estimated at 1 μM concentration at pH = 7.4. The ligand displacement measurement could not be applied to the RuCym complexes due to the release of the p-cymene ring followed by the formation of the mixed ligand complex with bpy and oxidation of the metal center (Figure S26), similarly to analogue complexes.[14],[26],[27]

MES-SA/Dx5 = assay: Cytotoxicity in triple coculture, MES-SA/Dx5 eGFP; format: cell-based, human
Experimental: as §1, §2

A431 = tested on: A431; design: method as in earlier work; conditions: monoculture, 72 h, PrestoBlue; ref SI3; cited from earlier work
A431-B1 = tested on: A431-B1; design: method as in earlier work; conditions: monoculture, ref SI3, cited from earlier work
[3] = pKa of the ligands by 1H NMR titration; format: physicochemical; conditions: 0.20 M KNO3 with 10% (v/v) D2O, I = 0.20 M KNO3, 25.0 °C, read-out: pKa (OH)
Experimental: (§3) Physico-chemical properties such as aqueous solubility, lipophilicity, and the actual protonation state at a given pH are known to influence the pharmacokinetic behavior of a drug.
Bruker Avance III HD Ascend 500 Plus instrument (Billerica, MA, USA) was used for NMR studies. ^1H NMR spectroscopic measurements were carried out with a WATERGATE water suppression pulse scheme in the presence of 10% (v/v) D2O in most cases. DSS internal standard was added to samples to obtain reference peaks. ^1H NMR titrations were carried out in the presence of 0.20 M KNO3. The computer program HypSpec[64] was used to obtain equilibrium constants.

[4] = Thermodynamic aqueous solubility at pH 7.4; format: physicochemical; conditions: 10 mM HEPES buffer, thermodynamic from solid, pH 7.4 (10 mM HEPES), 25.0 °C, read-out: thermodynamic aqueous solubility S7.4
Experimental: The concentration of the compounds was determined by UV–vis spectrophotometry. For calibration, stock solutions of the compounds were used with known concentrations dissolved in 100% DMSO, 75% DMSO, and 50% (v/v) DMSO/buffered aqueous solutions.

[5] = pKa of the ligands by UV–vis titration; format: physicochemical; conditions: for pKa: 0.20 M KNO3, UV–vis, I = 0.20 M KNO3, 10 equiv. EDTA
Experimental: as §3
An Agilent Cary 8454 diode array spectrophotometer was utilized to obtain UV–vis spectra in the wavelength range 190–1100 nm. The path length (l) was 1 or 2 cm in most cases (the actual l is always indicated in the legends of the figures). The concentrations of the ligands and complexes were between 36 and 100 μM. The ligands were titrated in the presence of 10 equiv of EDTA. Individual samples contained 0–37 μM HSA, 0–206 μM MIM, 0–759 μM AHA, or 0–733 μM FHA. Spectra were always background and baseline corrected. The computer program HypSpec[64] was used to obtain stability constants.

| Molecule | IC50 (MES-SA) [nM] | logK’ (H2O/Cl–) [1] | logK’ [M(arene)L]7.4 conditional formation constant [2] | SR Dx5 = IC50 (MES-SA)/IC50 (MES-SA/Dx5) (MES-SA/Dx5) | IC50 (MES-SA/Dx5; 144 h) [nM] | IC50 (A431) [nM] | IC50 (A431-B1; 72 h, PrestoBlue) [nM] | SR (A431 / A431-B1) (A431-B1) | pKa [3] | solubility thermodynamic [4] [µM] | pKa ([5]; read-out: pKa (Npyr/pipH+)) | pKa ([5]; read-out: pKa (NqH+)) | pKa ([5]; read-out: pKa (OH)) | fraction of HL ([5]; pH 7.4, based on the pKa values) [%] |
| --- | --- | --- | --- | --- | --- | --- | --- | --- | --- | --- | --- | --- | --- | --- |
| [RhCp*(HQCl-Pip)Cl]Cl [(3)] | 2110 | 2.21 ± 0.03 | 11.89 ± 0.03 | 11.1 | 190 | – | – | – | – | – | – | – | – | – |
| Oc1c(CN2CCCCC2)cc(Cl)c2cccnc12 [HQCl-pip, 5-chloro-7-(piperidin-1-ylmethyl)quinolin-8-ol] | – | – | – | – | – | 6670 ± 1690 | 1690 ± 270 | 3.96 | 7.43 ± 0.02 | 254 ± 3 (≈ 70.3 µg/mL) | 11.3 ± 0.12 | 2.09 ± 0.05 | 7.42 ± 0.03 | 42 |
